Measured values as given in patent US12274705B2, “Composition comprising CYP4A-inhibiting compound as active ingredient for preventing or treating metabolic diseases” (Korea Basic Science Institute, priority 2018, dated 2025).

Key:
[1] = test system: HepG2 cells; experiment: Active oxygen (ROS) scavenging ability under ER stress (H2DCFDA); type: cell-based, human; conditions: 5 μM compound; for amount of ROS: Thapsigargin or Tunicamycin; for inhibition of ROS production and removal of ROS: Thapsigargin-treated group, compared with HET0016
Protocol: After culturing HepG2 cells, a human liver cell line, in high-glucose DMEM medium (Dulbecco's modified Eagle's medium, glucose 25 mM) in the presence of 10% fetal bovine serum (FBS), an experiment was performed to measure the ability to remove reactive oxygen species by the following method.
First, HepG2 cells were grown to 1×10^4 cells/well in a 96-well plate (black, clear bottom culture plate) by the above method, and then 5 μM of each compound screened in Example 1 was added and incubated for 6 hours. After adding thapsigargin or tunicamycin to induce endoplasmic reticulum stress, the reaction was put in an incubator for 24 hours. After that, 5 μM H2DCFDA (cell-permeant 2′,7′-dichlorodihydrofluorescein diacetate) was added and reacted for 30 minutes in an incubator at 37° C. Thereafter, after washing with PBS, it was placed in an incubator at 37° C. for 30 minutes and waited for luminescence to occur. Thereafter, fluorescence was measured with a microplate reader (Excitation: 488 nm, Emission: 508 nm).

[2] = biological target: T1, CYP4A (CYP4A11) (Homo sapiens, UniProt Q02928); experiment: CYP4A activity inhibition, Luciferin-4A luminescence with CYP4A expressing HepG2 cell lysate; type: biochemical; conditions: FIG. 1: all compounds at 5 μM; FIG. 2: by concentration; compared with HET0016
T1 construct: expressed in transfected cells; host or cells: HepG2 (human liver cell line), RIPA lysate
T1 sequence (Q02928 5-519): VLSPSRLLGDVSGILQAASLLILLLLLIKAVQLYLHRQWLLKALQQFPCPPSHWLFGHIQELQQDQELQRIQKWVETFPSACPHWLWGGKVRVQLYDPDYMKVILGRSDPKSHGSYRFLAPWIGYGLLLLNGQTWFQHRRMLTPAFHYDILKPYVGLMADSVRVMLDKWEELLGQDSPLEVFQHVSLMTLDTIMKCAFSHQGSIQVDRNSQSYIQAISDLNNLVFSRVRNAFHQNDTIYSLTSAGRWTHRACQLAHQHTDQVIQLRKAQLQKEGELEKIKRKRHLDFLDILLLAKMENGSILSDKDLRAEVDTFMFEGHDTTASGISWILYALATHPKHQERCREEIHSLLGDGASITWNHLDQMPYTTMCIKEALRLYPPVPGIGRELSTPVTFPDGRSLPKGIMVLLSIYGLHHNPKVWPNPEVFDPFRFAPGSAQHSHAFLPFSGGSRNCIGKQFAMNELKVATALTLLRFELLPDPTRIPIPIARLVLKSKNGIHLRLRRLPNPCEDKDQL
Protocol: CYP4A11 DNA (GenBank: S67580.1) was transfected into HepG2 cells, a human liver cell line, and cultured in an incubator for 24 hours so that the protein was expressed. After that, cells were pulverized by adding RIPA buffer (20 mM Tris-HCl (pH 7.5), 150 mM NaCl, 1 mM Na2EDTA, 1 mM EGTA, 1% NP-40, 1% sodium deoxycholate, 2.5 mM sodium pyrophosphate, 1 mM b-glycerophosphate, 1 mM Na3VO4, 1 μg/ml leupeptin) to extract proteins, and then CYP4A activity experiment and compound screening were performed as follows. […]
After putting it in the NADPH Regeneration system (20× sol.A, 100× sol.B in water, Cal. Number: D399, Thermo Fisher SCIENTIFIC), leave it at room temperature for 1 hour to allow the CYP4A reaction to occur sufficiently, and CYP4A reaction is finished by adding Luciferin Detection reagent, and induce a luminescence reaction to occur, and the reaction was carried out at room temperature for 20 minutes. The degree of inhibition of CYP4A activity was measured by comparing the luminescence values from each well with a microplate reader.

[3] = test system: HepG2 cells; experiment: Glucose absorption promoting effect (2-NBDG uptake) under ER stress; type: cell-based, human; conditions: 5 μM compound
Protocol: HepG2 cells, a human liver cell line, were cultured in a high-glucose DMEM (Dulbecco's modified Eagle's medium, glucose 25 mM) medium in the presence of 10% fetal bovine serum (FBS), and then glucose uptake experiments were performed as follows.
First, HepG2 cells were grown to 1×10^4 cells/well in a 96-well plate (black, clear bottom culture plate) by the above method, and then 5 μM of each compound screened in Example 1 was added and incubated for 6 hours. Here, thapsigargin or tunicamycin, which induces endoplasmic reticulum stress, was added to hepatocytes, and then placed in an incubator at 37° C. for 24 hours to react. After that, insulin and 2-NBDG (2-(N-(7-Nitrobenz-2-oxa-1,3-diazol-4-yl)Amino)-2-Deoxyglucose) were added and reacted in an incubator at 37° C. for 3 hours, and after washing with PBS (phosphate buffered saline), fluorescence was measured with a microplate reader (Excitation: 488 nm, Emission: 508 nm).

[4] = test system: HepG2 cells; experiment: Fat accumulation inhibitory activity in hepatocytes (palmitate, Nile-Red); type: cell-based, human; conditions: 5 μM compound; palmitate 72 hours; compared with positive control HET0016
Protocol: After culturing HepG2 cells, a human liver cell line, in a high-concentration DMEM medium (Dulbecco's modified Eagle's medium, glucose 25 mM) containing 10% fetal bovine serum (FBS), an experiment was performed to measure fat accumulation by the following method.
First, HepG2 cells were grown to 5×10^3 cells/well in a 96-well plate (black, clear bottom culture plate) by the above method, and 5 μM of each compound screened in Example 1 was added thereto, followed by incubation for 6 hours. Here, palmitate, a fatty acid that induces fat accumulation in hepatocytes, is added, and then placed in an incubator at 37° C. for 72 hours to react. Thereafter, 4% paraformaldehyde was added and reacted at room temperature for 15 minutes to fix, and then Nile-Red solution was added, light was blocked, and reaction was performed at 37° C. for 10 minutes. After the reaction time, fluorescence was measured with a microplate reader (Excitation: 530 nm, Emission: 635 nm).

[5] = Thapsigargin or Tunicamycin, compared with positive control HET0016
[6] = Tunicamycin-treated group, compared with HET0016

Compound	amount of ROS [1]	inhibition of ROS production and removal of ROS [1]	CYP4A inhibitory ability (luminescence) [2]	glucose absorption promoting effect (2-NBDG fluorescence) [3, 5]	glucose absorption promoting effect (2-NBDG fluorescence) [3, 6]	fat accumulation in liver cells (Nile-Red fluorescence) [4]
CC(=O)Nc1ccc(S(=O)(=O)N2CCN(c3ccnc4cc(Cl)ccc34)CC2)cc1 [#18-1, N-(4-((4-(7-chloroquinolin-4-yl)piperazin-1-yl)sulfonyl)phenyl)acetamide]	significantly decreased	better inhibition of ROS production and removal of ROS than HET0016	particularly excellent among the selected compounds	significant to the same or higher degree than that of the positive control group (HET0016)	more effective in promoting glucose absorption than the known HET0016 compound	suppressed to a degree similar to that of the positive control group (HET0016)
CC(=O)Nc1ccc(S(=O)(=O)N2CCN(c3cc(C)nc4ccccc34)CC2)cc1 [#18-2, N-(4-((4-(2-methylquinolin-4-yl)piperazin-1-yl)sulfonyl)phenyl)acetamide]	significantly decreased	better inhibition of ROS production and removal of ROS than HET0016	particularly excellent among the selected compounds	significant to the same or higher degree than that of the positive control group (HET0016)	more effective in promoting glucose absorption than the known HET0016 compound	suppressed to a degree similar to that of the positive control group (HET0016)
